# Measured values: US9447136B2, “Semisynthetic derivatives of Nystatin A1” (BLIRT S.A., priority 2012, dated 2016)
# Assays:
# [1] = format: physicochemical
# Excerpt: As described herein, a compound of the invention may also be provided in the form of a complex, with a complexing agent.
# [2] = system: Aspergillus niger LOCK E201; assay: Antifungal activity in vitro, serial dilution in RPMI 1640; format: cell-based; conditions: Table 2B
# Method in brief: (§1)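 In buffered RPMI 1640 at pH 7.0, fungi were exposed to serially diluted compound (M27-A2 standard) and turbidity was recorded at 531 nm. Values relative to control: IC50 at 50%, MIC as lowest concentration at ≤20%.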
# [3] = system: Candida albicans ATCC 10231; assay: as above; format: cell-based
# Method in brief: as §1
# Candida arborea KKP 319 = assay: as above; format: cell-based; conditions: Table 2B
# Method in brief: as §1
# [4] = system: Candida dubliniensis CBS 7987; assay: as above; format: cell-based; conditions: Table 2B
# Method in brief: as §1
# [5] = system: Candida glabrata DSM 11226; assay: as above; format: cell-based; conditions: Table 2A; RPMI 1640, pH 7.0
# Method in brief: as §1
# Candida krusei DSM 6128 = assay: as above; format: cell-based; conditions: Table 2A; RPMI 1640, pH 7.0
# Method in brief: as §1
# [6] = system: Candida lipolytica KKP 322; assay: as above; format: cell-based; conditions: Table 2B
# Method in brief: as §1
# [7] = system: Candida lusitaniae DSM 70102; assay: as above; format: cell-based; conditions: Table 2A; RPMI 1640, pH 7.0
# Method in brief: as §1
# [8] = system: Candida parapsilosis DSM 5784; assay: as above; format: cell-based; conditions: Table 2B
# Method in brief: as §1
# [9] = system: Candida pseudotropicalis KKP 324; assay: as above; format: cell-based; conditions: Table 2B
# Method in brief: as §1
# [10] = system: Candida quilliermondii DSM 11947; assay: as above; format: cell-based; conditions: Table 2B
# Method in brief: as §1
# [11] = system: Candida stellatoidea CBS 1905; assay: as above; format: cell-based; conditions: Table 2B
# Method in brief: as §1
# [12] = system: Candida tropicalis KKP 334; assay: as above; format: cell-based; conditions: Table 2A; RPMI 1640, pH 7.0
# Method in brief: as §1
# [13] = system: Saccharomyces cerevisiae ATCC 9763; assay: as above; format: cell-based
# Method in brief: as §1
# [14] = system: Trichoderma viride LOCK E159; assay: as above; format: cell-based; conditions: Table 2B
# Method in brief: as §1
# Human erythrocytes = assay: Hemotoxicity (hemolytic activity); conditions: human erythrocytes
# Method in brief: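 Human erythrocytes in saline (2×10^7/ml) were incubated with serially diluted compound at 37 °C for 30 min, then centrifuged. Released hemoglobin was read as A540 against 0.1% Triton X-100 as full hemolysis. EH50 is the interpolated concentration giving 50% of the control A540.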
# Candida albicans 5674 = assay: Antifungal activity towards resistant (MDR) strains; format: cell-based; conditions: C. albicans 5674 overexpressing CDR1 and CDR2
# Method in brief: (§2)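 Susceptibility testing used the M27-A2 reference broth dilution method with serial compound dilutions in buffered RPMI 1640. MIC defined at ≤20% of control A660.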
# Candida albicans B3 = assay: as above; format: cell-based; conditions: fluconazole sensitive, parent strain for B4
# Method in brief: (§3)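 Growth inhibition assessed by turbidity (A660) after serial dilution of test compounds in buffered RPMI 1640 under the approved M27-A2 protocol. The MIC was determined graphically as the concentration where absorbance fell to 20% or less of the untreated control.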
# Candida albicans B4 = assay: as above; format: cell-based; conditions: fluconazole-resistant due to the overexpression of CaMDR1
# Method in brief: as §2
# Candida albicans F2 = assay: as above; format: cell-based; conditions: fluconazole sensitive, parent strain for F5
# Method in brief: as §3
# Candida albicans F5 = assay: as above; format: cell-based; conditions: fluconazole-resistant due to the overexpression of CaMDR1 and ERG11
# Method in brief: as §2
# Candida albicans Gu4 = assay: as above; format: cell-based; conditions: fluconazole sensitive, parent strain for Gu5
# Method in brief: as §3
# Candida albicans Gu5 = assay: as above; format: cell-based; conditions: fluconazole-resistant due to the overexpression of CDR1 and CDR2
# Method in brief: as §3
# Candida albicans STY19 = assay: as above; format: cell-based; conditions: 5674 mutant derivative, deletion of CDR1
# Method in brief: as §2
# Candida albicans STY31 = assay: as above; format: cell-based; conditions: 5674 mutant derivative, deletion of CDR1 and CDR2
# Method in brief: as §2
# Candida albicans STY7 = assay: as above; format: cell-based; conditions: 5674 mutant derivative, deletion of CDR2
# Method in brief: as §2
# CCRF-CEM = assay: Cytotoxic activity against mammalian cells in tissue culture (MTT); format: cell-based, human
# Method in brief: (§4)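 Cells at 1.2×10^4/well were exposed to serial 2× DMSO dilutions for 120 h at 37 °C: CCRF-CEM in RPMI 1640 + 10% FBS, HepG2 in MEM + 10% FBS, LLC-PK1 in Medium 199 + 3% FBS. MTT was added for 4 h and A540 read. IC50 is the concentration halving A540 versus DMSO control.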
# HepG2 = assay: as above; format: cell-based, human
# Method in brief: as §4
# LLC-PK1 = assay: as above; format: cell-based, pig
# Method in brief: as §4
# [15] = Table 2A, RPMI 1640, pH 7.0, A531 at most 20% of control
smiles,measurement,setting,value
"CCCN(CC(=O)C(O)C(O)C(O)CO)C1C(O)C(C)OC(OC2C=CC=CC=CC=CCCC=CC=CC(C)C(O)C(C)C(C)OC(=O)CC(O)CC(O)CCC(O)C(O)CC(O)CC3(O)CC(O)C(C(=O)O)C(C2)O3)C1O.CNCC(O)C(O)C(O)C(O)CO [Compound N59, N-methyl-D-glucamine salt of N-fructosyl-N-n-propylnystatin A1]",water solubility of the salt,[1],water soluble
"C[C@@H]1[C@H](O)[C@@H](C)/C=C/C=C/CC/C=C/C=C/C=C/C=C/C(O[C@H]2O[C@H](C)[C@@H](O)[C@H](N)[C@@H]2O)CC2O[C@](O)(CC(O)C(O)CCC(O)CC(O)CC(O)CC(=O)O[C@H]1C)CC(O)C2C(=O)O (some centres unmarked) [Nystatin, Nystatin A1]",MIC Aspergillus niger LOCK E201,[2],1 µg/mL
same,Antifungal activity Candida albicans ATCC 10231 IC50,"[3]; Table 2A, RPMI 1640, pH 7.0, A531 50% of control",0.23 µg/mL
same,Antifungal activity Candida albicans ATCC 10231 MIC,[3]; [15],0.5 µg/mL
same,MIC Candida albicans ATCC 10231,[3]; Table 2B,0.5 µg/mL
same,MIC Candida arborea KKP 319,Candida arborea KKP 319,1 µg/mL
same,MIC Candida dubliniensis CBS 7987,[4],1 µg/mL
same,Antifungal activity Candida glabrata DSM 11226 MIC,[5],1 µg/mL
same,Antifungal activity Candida krusei DSM 6128 MIC,Candida krusei DSM 6128,1 µg/mL
same,MIC Candida lipolytica KKP 322,[6],0.5 µg/mL
same,Antifungal activity Candida lusitaniae DSM 70102 MIC,[7],0.25 µg/mL
same,MIC Candida parapsilosis DSM 5784,[8],1 µg/mL
same,MIC Candida pseudotropicalis KKP 324,[9],1 µg/mL
same,MIC Candida quilliermondii DSM 11947,[10],0.5 µg/mL
same,MIC Candida stellatoidea CBS 1905,[11],1 µg/mL
same,Antifungal activity Candida tropicalis KKP 334 MIC,[12],0.5 µg/mL
same,Antifungal activity Saccharomyces cerevisiae ATCC 9763 MIC,[13]; [15],0.5 µg/mL
same,MIC Saccharomyces cerevisiae ATCC 9763,[13]; Table 2B,0.5 µg/mL
same,MIC Trichoderma viride LOCK E159,[14],1 µg/mL
same,% of hemolysis at the concentration 60 μg ml^−1,Human erythrocytes; 60 μg ml^−1,100%
same,% of hemolysis at the concentration 300 μg ml^−1,Human erythrocytes; 300 μg ml^−1,100%
same,EH10,Human erythrocytes; concentration causing 10% of hemolysis,22.13 µg/mL
same,MIC Candida albicans 5674,Candida albicans 5674,1 µg/mL
same,MIC Candida albicans B3,Candida albicans B3,0.5 µg/mL
same,MIC Candida albicans B4,Candida albicans B4,1 µg/mL
same,MIC Candida albicans F2,Candida albicans F2,1 µg/mL
same,MIC Candida albicans F5,Candida albicans F5,1 µg/mL
same,MIC Candida albicans Gu4,Candida albicans Gu4,0.5 µg/mL
same,MIC Candida albicans Gu5,Candida albicans Gu5,1 µg/mL
same,MIC Candida albicans STY19,Candida albicans STY19,1 µg/mL
same,MIC Candida albicans STY31,Candida albicans STY31,1 µg/mL
same,MIC Candida albicans STY7,Candida albicans STY7,1 µg/mL
same,Cytotoxicity IC50 CCRF-CEM,CCRF-CEM,>100 µg/mL
same,Cytotoxicity IC50 HepG2,HepG2,24.9 ± 2.332 µg/mL
same,Cytotoxicity IC50 LLC-PK1,LLC-PK1,>100 µg/mL
